What follows are molecules tested against human ACC2 (Homo sapiens (Human), UniProt O00763) (assay: ACC2 assay (spectrophotometric 384 well assay, NADH-linked coupled lactate dehydrogenase/pyruvate kinase)). Conditions: hACC2 construct lacking 128 N-terminal amino acids; 25° C., 340 nm, 15 minutes.
Type: biochemical
Protocol: Spectrophotometric 384 Well Assay
Malonyl CoA formation by acetyl CoA carboxylases is stoichometrically linked to the consumption of ATP. ACC2 activity is measured in a NADH-linked kinetic method measuring ADP generated during the ACC reaction using a coupled lactate dehydrogenase/pyruvate kinase reaction.
For biological testing, a human ACC2 construct which lacks the 128 amino acids at the N-terminus for increased solubility (nt 385-6966 in Genbank entry AJ575592) is cloned. The protein is then expressed in insect cells using a baculoviral expression system. Protein purification is performed by anion exchange.
All compounds are dissolved in dimethyl sulfoxide (DMSO) to a concentration of 10 mM.
Assay reactions are then carried out in 384-well plates, with hACC2 in an appropriate dilution and at final assay concentrations (f.c.) of 100 mM Tris (pH 7.5), 10 mM trisodium citrate, 25 mM KHCO3, 10 mM MgCl2, 0.5 mg/ml BSA, 3.75 mM reduced L-glutathione, 15 U/ml lactate dehydrogenase, 0.5 mM phosphoenolpyruvate, 15 U/ml pyruvate kinase, compounds at different concentrations at final DMSO concentrations of 1%.
The enzymatic reaction is then started by addition of a mixture of NADH, acetyl Coenzyme A (both 200 μM f.c.) and ATP (500 uM f.c.). The decrease of the optical density (slope S) is then determined at 25° C. at a wavelength of 340 nm over 15 minutes in a spectrophotometric reader.
Each assay microtiter plate contains wells with vehicle instead of compound as controls for the non-inhibited enzyme (100% CTL; ‘HIGH’) and wells without acetyl-CoA as controls for non-specific NADH degradation (0% CTL; ‘LOW’).
The slope S is used for calculation of % CTL=(S(compound)−S(‘LOW’))/(S(‘HIGH’)—S(‘LOW’))*100. Compounds will give values between 100% CTL (no inhibition) and 0% CTL (complete inhibition).
For IC50 value determination, the sample slope in the presence of the test compound after subtraction of the low controls (S(compound)−S(‘LOW’)) are used.
An IC50 value is derived from the compound slopes at different dosages after subtraction of the low controls (S(compound)−S(‘LOW’)) by non-linear regression curve fitting (equation y=(A+((B−A)/(1+((C/x)^D))))).

human ACC2, sequence (O00763 129-2458): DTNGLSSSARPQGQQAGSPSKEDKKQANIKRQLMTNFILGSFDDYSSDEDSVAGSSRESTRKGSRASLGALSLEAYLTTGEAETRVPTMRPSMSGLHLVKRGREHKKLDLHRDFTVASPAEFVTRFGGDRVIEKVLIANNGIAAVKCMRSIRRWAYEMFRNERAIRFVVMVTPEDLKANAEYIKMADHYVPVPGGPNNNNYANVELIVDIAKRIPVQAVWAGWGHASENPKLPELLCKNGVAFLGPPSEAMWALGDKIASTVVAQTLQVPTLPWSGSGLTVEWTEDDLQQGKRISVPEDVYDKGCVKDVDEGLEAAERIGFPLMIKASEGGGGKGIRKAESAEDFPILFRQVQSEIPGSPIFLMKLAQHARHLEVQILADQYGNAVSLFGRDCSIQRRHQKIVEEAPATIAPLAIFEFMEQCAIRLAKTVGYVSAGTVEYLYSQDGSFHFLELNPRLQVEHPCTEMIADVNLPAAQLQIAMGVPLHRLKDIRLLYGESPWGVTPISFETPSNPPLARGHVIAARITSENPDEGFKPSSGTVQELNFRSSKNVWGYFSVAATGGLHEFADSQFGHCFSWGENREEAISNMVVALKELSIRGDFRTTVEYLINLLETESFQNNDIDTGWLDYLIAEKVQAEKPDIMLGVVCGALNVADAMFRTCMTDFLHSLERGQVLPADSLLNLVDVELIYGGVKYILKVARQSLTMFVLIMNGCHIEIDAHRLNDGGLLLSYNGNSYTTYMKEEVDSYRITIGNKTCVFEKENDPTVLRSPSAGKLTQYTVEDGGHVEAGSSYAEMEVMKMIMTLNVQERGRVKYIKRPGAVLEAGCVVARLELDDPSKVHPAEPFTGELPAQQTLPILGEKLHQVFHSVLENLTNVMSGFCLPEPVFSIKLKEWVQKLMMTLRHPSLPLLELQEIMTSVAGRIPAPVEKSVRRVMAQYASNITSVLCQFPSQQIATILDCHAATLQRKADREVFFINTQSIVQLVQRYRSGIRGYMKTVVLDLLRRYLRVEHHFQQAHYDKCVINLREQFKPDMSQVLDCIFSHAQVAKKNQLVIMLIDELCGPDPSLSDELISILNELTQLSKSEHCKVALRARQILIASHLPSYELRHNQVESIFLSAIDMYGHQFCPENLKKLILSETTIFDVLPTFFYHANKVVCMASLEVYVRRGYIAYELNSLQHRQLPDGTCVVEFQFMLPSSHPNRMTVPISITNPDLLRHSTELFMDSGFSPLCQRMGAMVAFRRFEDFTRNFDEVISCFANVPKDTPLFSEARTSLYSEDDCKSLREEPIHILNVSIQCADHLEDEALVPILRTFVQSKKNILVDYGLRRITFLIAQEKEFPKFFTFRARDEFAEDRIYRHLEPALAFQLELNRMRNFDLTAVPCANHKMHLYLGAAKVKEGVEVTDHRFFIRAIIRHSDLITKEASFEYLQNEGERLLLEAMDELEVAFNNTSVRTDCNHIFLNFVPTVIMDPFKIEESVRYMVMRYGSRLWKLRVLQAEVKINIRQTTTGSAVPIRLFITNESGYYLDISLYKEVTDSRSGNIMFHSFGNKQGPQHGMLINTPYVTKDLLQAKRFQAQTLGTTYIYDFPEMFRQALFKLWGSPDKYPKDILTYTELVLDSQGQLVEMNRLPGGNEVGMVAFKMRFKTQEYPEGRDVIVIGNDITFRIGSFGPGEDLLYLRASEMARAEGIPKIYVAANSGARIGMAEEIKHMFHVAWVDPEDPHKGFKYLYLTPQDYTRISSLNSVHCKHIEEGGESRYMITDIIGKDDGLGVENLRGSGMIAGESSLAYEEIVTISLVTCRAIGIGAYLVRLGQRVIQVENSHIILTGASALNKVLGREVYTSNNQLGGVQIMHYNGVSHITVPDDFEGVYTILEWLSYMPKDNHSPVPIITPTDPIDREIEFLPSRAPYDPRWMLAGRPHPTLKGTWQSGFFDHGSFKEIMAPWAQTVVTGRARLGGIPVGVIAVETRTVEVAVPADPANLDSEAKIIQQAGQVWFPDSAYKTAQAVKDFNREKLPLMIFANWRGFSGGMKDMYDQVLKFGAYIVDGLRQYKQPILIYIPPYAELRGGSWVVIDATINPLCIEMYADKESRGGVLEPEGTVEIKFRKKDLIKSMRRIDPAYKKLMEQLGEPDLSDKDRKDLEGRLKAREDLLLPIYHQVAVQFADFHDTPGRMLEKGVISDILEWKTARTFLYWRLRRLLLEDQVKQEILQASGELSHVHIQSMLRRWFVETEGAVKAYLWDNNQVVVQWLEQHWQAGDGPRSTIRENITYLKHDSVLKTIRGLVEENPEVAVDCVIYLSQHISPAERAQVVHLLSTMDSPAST

IC50 [nM]	SMILES
1740	CCOc1ccc(N2CC(Oc3ccc([C@H](C)NC(=O)CC4CC4)cc3)C2)cc1 [Example 8.15]
160	C[C@H](NC(=O)c1cn[nH]c1)c1ccc(OC2CN(c3ncc(C4CC4)cn3)C2)cc1 [Example 8.5]
2250	CCOc1ccc(N2CC(Oc3ccc([C@H](C)NC(=O)c4ccnnc4)cc3)C2)cc1 [Example 8.14]
4120	CC(=O)N[C@@H](C)c1ccc(OC2CN(c3cc(N(C)CC4CC4)ncn3)C2)cc1 [Example 12.1]
350	CCOc1ccc(N2CC(Oc3ccc([C@H](C)NC(=O)C4CC=CC4)cc3)C2)cc1 [Example 8.40]
690	CCOc1ccc(N2CC(Oc3ccc([C@H](C)NC(=O)C4CC(F)C4)cc3)C2)cc1 (stereo partly shown) [Example 8.19]
8280	CCCOc1nccc(N2CC(Oc3ccc([C@H](C)NC(C)=O)cc3)C2)n1 [Example 11.6]
420	COC(=O)N[C@@H](C)c1ccc(OC2CN(c3ncc(C4CC4)cn3)C2)cc1 [Example 10.6]
2310	CCOc1ccc(N2CC(Oc3ccc([C@H](C)NC(=O)c4cccnc4)cc3)C2)cc1 [Example 8.45]
340	C[C@H](NC(=O)N(C)C)c1ccc(OC2CN(c3ncc(C4CC4)cn3)C2)cc1 [Example 10.1]
2060	CCOc1ccc(N2CC(Oc3ccc([C@H](C)NC(=O)c4ccc(C)o4)cc3)C2)cc1 [Example 8.37]
1910	CCOc1ccc(N2CC(Oc3ccc([C@H](C)NC(=O)COC)cc3)C2)cc1 [Example 8.47]
3200	CC(=O)N[C@@H](C)c1ccc(OC2CN(c3cc(OC4CCC4)ncn3)C2)cc1 [Example 11.5]
480	CCCOc1ccc(N2CC(Oc3ccc([C@H](C)NC(=O)N(C)C)cc3)C2)c(OC)c1 [Example 10.5]
1690	CCCC(=O)N[C@@H](C)c1ccc(OC2CN(c3ccc(OCC)cc3)C2)cc1 [Example 8.42]
50	CCOc1ccc(N2CC(Oc3ccc([C@H](C)NC(=O)c4cn[nH]c4)cc3)C2)cc1 [Example 8.7]

The next lines start with the molecule.

SMILES	IC50 [nM]
CC(=O)N[C@@H](C)c1ccc(OC2CN(c3ncc(Br)cn3)C2)cc1 [Example 3.1, (S)—N-(1-(4-(1-(5-bromopyrimidin-2-yl)azetidin-3-yloxy)phenyl)ethyl)acetamide]	210
CCCOc1cccc(N2CC(Oc3ccc([C@H](C)NC(C)=O)cc3)C2)c1 [Example 1.48]	1020
CCCOc1ccc(N2CC(Oc3ccc([C@H](C)NC(C)=O)cc3)C2)c(C#N)c1 [Example 1.25]	580
CCOC(=O)c1cnc(N2CC(Oc3ccc([C@H](C)NC(C)=O)cc3)C2)nc1C(F)(F)F [Example 4.33]	1730
CCOc1ccc(N2CC(Oc3ccc([C@H](C)NC(=O)CF)cc3)C2)cc1 [Example 8.30]	670
CC(=O)N[C@@H](C)c1ccc(OC2CN(c3cc(C(F)(F)F)cc(C)n3)C2)cc1 [Example 4.4]	3990
COc1cc(OCC2CC2)ccc1N1CC(Oc2ccc([C@H](C)NC(C)=O)cc2)C1 [Example 1.36]	2830
CC(=O)N[C@@H](C)c1ccc(OC2CN(c3ccc(Cl)c(C(F)(F)F)n3)C2)cc1 [Example 4.32]	100
CCOc1ccc(N2CC(Oc3ccc([C@H](C)NC(C)=O)cc3)C2)c(F)c1 [Example 2.3]	240
COc1ccc2nc(N3CC(Oc4ccc([C@H](C)NC(C)=O)cc4)C3)ccc2c1 [Example 4.22]	450
CC(=O)N[C@@H](C)c1ccc(OC2CN(c3nnc(-c4ccccc4)s3)C2)cc1 [Example 3.9]	3820
CC(=O)N[C@@H](C)c1ccc(OC2CN(c3ccnc(C(F)(F)F)n3)C2)cc1 [Example 4.9]	720
CC(=O)N[C@@H](C)c1ccc(OC2CN(c3nc4ccccc4o3)C2)cc1 [Example 4.3]	480
CCCOc1cccc(N2CC(Oc3ccc([C@H](C)NC(=O)N(C)C)cc3)C2)c1 [Example 1.42]	1050
CC(=O)N[C@@H](C)c1ccc(OC2CN(c3ncc(OC(C)C)cn3)C2)cc1 [Example 4.34]	940
C[C@H](NC(=O)C1CC1)c1ccc(OC2CN(c3ncc(C4CC4)cn3)C2)cc1 [Example 3.5]	200
CC(=O)N[C@@H](C)c1ccc(OC2CN(c3ncc(OCC4CC4(F)F)cn3)C2)cc1 (stereo partly shown) [Example 4.42]	530
C[C@H](NC(=O)N(C)C)c1ccc(OC2CN(c3ncc(Br)cn3)C2)cc1 [Example 3.7]	470
CC(=O)N[C@@H](C)c1ccc(OC2CN(c3ccc4c(c3)OCCCO4)C2)cc1 [Example 1.16]	450
CC(=O)N[C@@H](C)c1ccc(OC2CN(c3ncc(C)cn3)C2)cc1 [Example 5.2]	2180
CC(=O)N[C@@H](C)c1ccc(OC2CN(c3cccc(OCC4CC4)c3)C2)cc1 [Example 7.1]	1440

SMILES	IC50 [nM]
CC(=O)N[C@@H](C)c1ccc(OC2CN(c3ccc4c(c3)OCC(C)(C)CO4)C2)cc1 [Example 1.18]	140
CC(=O)NC(C)Cc1ccc(OC2CN(c3ccc(C(C)(C)C)cc3)C2)cc1 (stereo not shown) [Example 1.11]	2210
CC(=O)N[C@@H](C)c1ccc(OC2CN(c3cccc(OCC4CC4(F)F)c3)C2)cc1 (stereo partly shown) [Example 7.2]	1250
CC(=O)N[C@@H](C)c1ccc(OC2CN(c3ccc(Br)cn3)C2)cc1 [Example 4.17]	290
CCOc1ccc(N2CC(Oc3ccc([C@H](C)NC(C)=O)cc3)C2)nc1 [Example 1.51]	270
CC(=O)N[C@@H](C)c1ccc(OC2CN(c3nc4ccccc4s3)C2)cc1 [Example 4.13]	250
C[C@H](NC(=O)C1CC1)c1ccc(OC2CN(c3ccc4c(c3)OCCO4)C2)cc1 [Example 1.41]	1230
CC(=O)NC(C)c1ccc(OC2CN(c3ncc(Br)cn3)C2)cc1 (stereo not shown) [Example 1.8]	550
CCOc1ccc(N2CC(Oc3ccc([C@H](C)NC(C)=O)cc3)C2)c(OC)c1 [Example 1.17]	1890
CC(=O)N[C@@H](C)c1ccc(OC2CN(c3ccc(OC4CC4)cc3F)C2)cc1 [Example 1.55]	110
CC(=O)N[C@@H](C)c1ccc(OC2CN(c3ccc(-c4ccccc4)cn3)C2)cc1 [Example 4.8]	240
CC(=O)N[C@@H](C)c1ccc(OC2CN(c3ccnc(Oc4ccccc4)c3)C2)cc1 [Example 2.8]	4100
CC(=O)N[C@@H](C)c1ccc(OC2CN(c3ccc4c(c3)OCCCC4(C)C)C2)cc1 [Example 1.29]	190
CC(=O)N[C@@H](C)c1ccc(OC2CN(c3cnc(NC4CCC4)nc3)C2)cc1 [Example 1.15]	180
CC(=O)N[C@@H](C)c1ccc(OC2CN(c3ccc4oc(-c5ccccc5)nc4c3)C2)cc1 [Example 1.28]	1620
CCOc1ccc(N2CC(Oc3ccc(C(C)NC(C)=O)cc3)C2)cc1 (stereo not shown) [Example 1.5]	200
C[C@H](NC(=O)C1CC1)c1ccc(OC2CN(c3ccc(OCC4CC4)cc3)C2)cc1 [Example 1.40]	1030
CC(=O)N[C@@H](C)c1ccc(OC2CN(c3ccc(OC4CC4)cc3OC3CC3)C2)cc1 [Example 2.4]	6140
C[C@H](NC(=O)C1CC1)c1ccc(OC2CN(c3ccc(OC4CC4)cc3)C2)cc1 [Example 1.39]	350
CC(=O)N[C@@H](C)c1ccc(OC2CN(c3ncc(Cl)cn3)C2)cc1 [Example 4.24]	390
CC(=O)N[C@@H](C)c1ccc(OC2CN(c3cc4c(cc3F)OCCO4)C2)cc1 [Example 1.57]	740

From patent US8530460B2, “Azetidine derivatives” (Boehringer Ingelheim International GmbH, priority 2011, dated 2013)
